Assay results as given in article PMC8625065 (Molecules, 2021).
Structures can show the parent of a compound that is named as a salt.

Columns and labels:
[1] = tested on: A549 (lung adenocarcinoma); assay: MTT proliferation assay, 72 h; type: cell-based; settings: Homo sapiens, A549 cells
Description: (§1) The cell lines HeLa (cervical carcinoma), SW620 (colorectal adenocarcinoma, metastatic), A549 (lung adenocarcinoma), HepG2 (hepatocellular carcinoma) and HFF (human foreskin fibroblasts) were cultured as monolayers and maintained in Dulbecco’s modified Eagle medium (DMEM), supplemented with 10% fetal bovine serum (FBS), 2mM L-glutamine, 100 U/mL penicillin and 100 μg/mL streptomycin in a humidified atmosphere with 5% CO2 at 37 °C.
(§2) Cells were seeded onto 96-well microtiter plates at a seeding density of 3000 cells/well for carcinoma cell lines, and 5000 cells/well for normal human fibroblasts. The next day, cells were treated with test agents at five different concentrations (0.01–100 µM) and further incubated for 72 h. […] Following 72 h incubation, the MTT assay was performed and measured absorbances were transformed into percentage of cell growth as described previously. Results were obtained from three independent experiments.

[2] = tested on: SW620 (colorectal adenocarcinoma, metastatic); assay: MTT proliferation assay, 72 h; type: cell-based, human; settings: Homo sapiens, SW-620; SW620 cells, MTT, 72 h
Description: as §1, §2

[3] = tested on: HeLa (cervical carcinoma); assay: MTT proliferation assay, 72 h; type: cell-based, human; settings: Homo sapiens; HeLa cells, MTT, 72 h
Description: as §1, §2

[4] = tested on: HepG2 (hepatocellular carcinoma); assay: MTT proliferation assay, 72 h; type: cell-based, human; settings: Homo sapiens; HepG2 cells, MTT, 72 h
Description: as §1, §2

[5] = tested on: HFF (human foreskin fibroblasts); assay: MTT proliferation assay, 72 h, non-tumor cells; type: cell-based; parameters: selectivity index (SI): reference not given here
Description: as §1, §2

melting point [°C]	IC50 [1] [µM]	IC50 [2] [µM]	IC50 [3] [µM]	IC50 [4] [µM]	SMILES	selectivity index (SI) ([5]; normal HFF fibroblasts versus tumor cells)	IC50 ([5]; Homo sapiens, Fibroblast, non-tumor HFF fibroblasts, MTT, 72 h) [µM]
> 250	–	–	–	–	c1cc(C2=NCCN2)c2ccn(Cc3cn(-c4ccc(C5=NCCN5)cc4)nn3)c2c1 (as salt: hydrochloride) [Compound 6, 1-((1-(4-(Dihydro-1H-imidazol-2-yl)phenyl)-1H-1,2,3-triazol-4-yl)methyl)-4-(dihydro-1H-imidazol-2-yl)-1H-indole dihydrochloride]	–	–
228 to 231	–	–	–	–	c1cc(-n2cc(Cn3ccc4cc(C5=NCCN5)ccc43)nn2)ccc1C1=NCCN1 (as salt: hydrochloride) [Compound 7, 1-((1-(4-(Dihydro-1H-imidazol-2-yl)phenyl)-1H-1,2,3-triazol-4-yl)methyl)-5-(dihydro-1H-imidazol-2-yl)-1H-indole dihydrochloride]	–	–
> 250	46.7	61.9	41.2	48.9	Cl.Cl.c1cc(C2=NCCN2)ccc1NCc1cn(-c2ccc(C3=NCCN3)cc2)nn1 [Compound 4, 1-(4-(4,5-Dihydro-1H-imidazol-2-yl)-phenyl)-4-((4-(4,5-dihydro-1H-imidazol-2-yl)phenyl)aminomethyl)-1H-1,2,3-triazole dihydrochloride]	2	–
229 to 232	> 100	> 100	> 100	> 100	N/C(=N\O)c1ccc(-n2cc(Cn3ccc4c(/C(N)=N/O)cccc43)nn2)cc1 [Compound 15, (Z)-N′-hydroxy-1-((1-(4-((Z)-N′-hydroxycarbamimidoyl)phenyl)-1H-1,2,3-triazol-4-yl)methyl)-1H-indole-4-carboximidamide]	–	–
–	6.52	–	25.6	> 100	N/C(=N\O)c1ccc(-n2cc(CNc3cccc4cccnc34)nn2)cc1 [Compound 18, 8-(((1-(4-((Z)-N′-Hydroxycarbamimidoyl)phenyl)-1H-1,2,3-triazol-4-yl)methyl)amino)quinoline]	–	9.81
235 to 237	> 100	> 100	99.7	> 100	N/C(=N\O)c1ccc(-n2cc(COc3cc(=O)oc4ccccc34)nn2)cc1 [Compound 21, 4-((1-(4-((Z)-N′-Hydroxycarbamimidoyl)phenyl)-1H-1,2,3-triazol-4-yl)methoxy)coumarin]	–	–

Second part, the molecule before the results:

SMILES	melting point [°C]	IC50 [1] [µM]	IC50 [2] [µM]	IC50 [3] [µM]	IC50 [4] [µM]	selectivity index (SI) ([5]; normal HFF fibroblasts versus tumor cells)	IC50 ([5]; Homo sapiens, Fibroblast, non-tumor HFF fibroblasts, MTT, 72 h) [µM]
O=c1[nH]cc(F)c(=O)[nH]1 [Compound 5-FU, 5-Fluorouracil, reference compound]	–	2.8	0.08	8.81	–	–	–
c1cc(-n2cc(Cn3ccc4cc(C5=NCCN5)ccc43)nn2)ccc1C1=NCCN1 [Compound 7, 1-((1-(4-(Dihydro-1H-imidazol-2-yl)phenyl)-1H-1,2,3-triazol-4-yl)methyl)-5-(dihydro-1H-imidazol-2-yl)-1H-indole dihydrochloride]	–	> 100	49.8	> 100	69.1	–	–
N#Cc1ccc(NCc2cn(-c3ccc(/C(N)=N/O)cc3)nn2)cc1 [Compound 12, 4-(((1-(4-((Z)-N′-Hydroxycarbamimidoyl)phenyl)-1H-1,2,3-triazol-4-yl)methyl)amino)benzonitrile]	222 to 225	> 100	65.1	> 100	> 100	–	–
N/C(=N\O)c1ccc(OCc2cn(-c3ccc(/C(N)=N/O)cc3)nn2)cc1 [Compound 13, (Z)-N′-Hydroxy-4-(4-((4-((Z)-N′-hydroxycarbamimidoyl)phenoxy)methyl)-1H-1,2,3-triazol-1-yl)benzimidamide]	218 to 221	> 100	> 100	> 100	> 100	–	–
N#Cc1cccc2c1ccn2Cc1cn(-c2ccc(/C(N)=N/O)cc2)nn1 [Compound 14, 1-((1-(4-((Z)-N′-Hydroxycarbamimidoyl)phenyl)-1H-1,2,3-triazol-4-yl)methyl)-4-cyanoindole]	–	> 100	> 100	65.8	> 100	–	–
N#Cc1ccc2c(ccn2Cc2cn(-c3ccc(/C(N)=N/O)cc3)nn2)c1 [Compound 16, 1-((1-(4-((Z)-N′-Hydroxycarbamimidoyl)phenyl)-1H-1,2,3-triazol-4-yl)methyl)-5-cyanoindole]	–	> 100	> 100	> 100	> 100	–	–
N/C(=N\O)c1ccc(-n2cc(Cn3ccc4cc(/C(N)=N/O)ccc43)nn2)cc1 [Compound 17, (Z)-N′-hydroxy-1-((1-(4-((Z)-N′-hydroxycarbamimidoyl)phenyl)-1H-1,2,3-triazol-4-yl)methyl)-indole-5-carboximidamide]	232 to 234	> 100	> 100	60.7	> 100	–	–
N/C(=N\O)c1ccc(-n2cc(COc3cccc4cccnc34)nn2)cc1 [Compound 19, 8-((1-(4-((Z)-N′-Hydroxycarbamimidoyl)phenyl)-1H-1,2,3-triazol-4-yl)methoxy)quinoline]	230 to 232	76.7	72.7	64.5	> 100	–	–
N/C(=N\O)c1ccc(-n2cc(COc3ccc4ccc(=O)oc4c3)nn2)cc1 [Compound 22, 7-((1-(4-((Z)-N′-Hydroxycarbamimidoyl)phenyl)-1H-1,2,3-triazol-4-yl)methoxy)coumarin]	232 to 235	> 100	> 100	87.4	91.4	–	–
